Laboratory results from PubChem BioAssay AID248 (DTP/NCI, 2004).
Values joined by “and” are separate entries in the source; they are usually repeats but may differ in a detail not shown here. Equal values may be shown once. Toxic doses and inconclusive results are not listed.

Test system: L1210 leukemia ip in BDF1 mice, survival T/C
Assay: NCI In Vivo Anticancer Drug Screen. Data for tumor model L1210 Leukemia (intraperitoneal) in B6D2F1 (BDF1) mice
Details: endpoint: mean survival time, higher = longer survival
Method in brief: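 Read-out is survival time, reported as the treated-group measurement over the vehicle-control measurement.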

[1] = dose: 100.0 mg/kg/injection, schedule: Q01DX009 (ip), vehicle: saline with Tween-80
[2] = dose: 200.0 mg/kg/injection, schedule: Q01DX009 (ip), vehicle: saline with Tween-80
[3] = dose: 100.0 mg/kg/injection, schedule: Q01DX001 (ip), vehicle: saline
[4] = dose: 200.0 mg/kg/injection, schedule: Q01DX001 (ip), vehicle: saline
[5] = dose: 400.0 mg/kg/injection, schedule: Q01DX001 (ip), vehicle: saline
[6] = dose: 100.0 mg/kg/injection, schedule: Q04DX003 (ip), vehicle: saline
[7] = dose: 200.0 mg/kg/injection, schedule: Q04DX003 (ip), vehicle: saline
[8] = dose: 400.0 mg/kg/injection, schedule: Q04DX003 (ip), vehicle: saline
[9] = dose: 100.0 mg/kg/injection, schedule: Q01DX001 (ip), vehicle: Klucel (hydroxypropylcellulose) (HPC)
[10] = dose: 200.0 mg/kg/injection, schedule: Q01DX001 (ip), vehicle: Klucel (hydroxypropylcellulose) (HPC)
[11] = dose: 100.0 mg/kg/injection, schedule: Q04DX003 (ip), vehicle: Klucel (hydroxypropylcellulose) (HPC)
[12] = dose: 200.0 mg/kg/injection, schedule: Q04DX003 (ip), vehicle: Klucel (hydroxypropylcellulose) (HPC)
[13] = dose: 400.0 mg/kg/injection, schedule: Q04DX003 (ip), vehicle: Klucel (hydroxypropylcellulose) (HPC)
[14] = dose: 100.0 mg/kg/injection, schedule: Q04DX003 (ip), vehicle: saline with Tween-80
[15] = dose: 100.0 mg/kg/injection, schedule: Q01DX009 (ip), vehicle: saline
[16] = dose: 200.0 mg/kg/injection, schedule: Q01DX009 (ip), vehicle: saline

CCOC(=O)C(Nc1cccc2ccccc12)C(=O)OCC
T/C (dose: 100.0 mg/kg/injection, schedule: Q04DX002 (ip), vehicle: Klucel (hydroxypropylcellulose) (HPC)): 105 % of control | T/C (dose: 200.0 mg/kg/injection, schedule: Q04DX002 (ip), vehicle: Klucel (hydroxypropylcellulose) (HPC)): 103 % of control | T/C (dose: 400.0 mg/kg/injection, schedule: Q04DX002 (ip), vehicle: Klucel (hydroxypropylcellulose) (HPC)): 100 % of control

Cc1ncc(C(C)(O)c2ccccc2)n1C (stereo not given)
T/C [1]: 105 % of control | T/C [2]: 94 % of control

O=C(O)c1c2ccccc2nc2ccccc12
T/C (dose: 50.0 mg/kg/injection, schedule: Q01DX001 (ip), vehicle: saline): 102 % of control | T/C [3]: 111 % of control

Nc1cccc(CC(=O)Nc2ccc(S(=O)(=O)F)cc2)c1
T/C [3]: 90 % of control | T/C [4]: 106 % of control | T/C [5]: 100 % of control

Cc1ccc(C(C)C)c(OCC(O)Cn2ccnc2)c1 (stereo not given)
T/C (dose: 20.0 mg/kg/injection, schedule: Q01DX001 (ip), vehicle: saline): 103 % of control | T/C (dose: 40.0 mg/kg/injection, schedule: Q01DX001 (ip), vehicle: saline): 101 % of control | T/C (dose: 80.0 mg/kg/injection, schedule: Q01DX001 (ip), vehicle: saline): 88 % of control | T/C [3]: 94 % of control

CCN(CC)CCOC(=O)C1C2CC3OC(=O)C1C3C2 (stereo not given)
T/C [6]: 108 % of control | T/C [7]: 95 % of control | T/C [8]: 92 % of control

CC(C)(C)NC(=O)CCl
T/C [9]: 93 % of control | T/C [10]: 106 % of control

CSc1nc2ccccc2s1
T/C (dose: 100.0 mg/kg/injection, schedule: Q01DX009 (ip), vehicle: Klucel (hydroxypropylcellulose) (HPC)): 97 % of control | T/C [11]: 105 % of control | T/C (dose: 200.0 mg/kg/injection, schedule: Q01DX009 (ip), vehicle: Klucel (hydroxypropylcellulose) (HPC)): 100 % of control | T/C [12]: 104 % of control | T/C [13]: 95 % of control

CC(=O)OCOC1C(COC(C)=O)OCOC(COC(C)=O)C1OCOC(C)=O (stereo not given)
T/C [9]: 103 % of control | T/C [10]: 103 % of control | T/C (dose: 400.0 mg/kg/injection, schedule: Q01DX001 (ip), vehicle: Klucel (hydroxypropylcellulose) (HPC)): 110 % of control

CCCCCCC#CC(=O)OCCCC
T/C (dose: 100.0 mg/kg/injection, schedule: Q04DX002 (ip), vehicle: saline with Tween-80): 93 % of control | T/C (dose: 200.0 mg/kg/injection, schedule: Q04DX002 (ip), vehicle: saline with Tween-80): 93 % of control | T/C (dose: 400.0 mg/kg/injection, schedule: Q04DX002 (ip), vehicle: saline with Tween-80): 90 % of control

CCOC(=O)CNNC(=O)C(O)C(O)C(O)C(O)CO (stereo not given)
T/C [3]: 87 % of control | T/C [4]: 100 % of control | T/C [5]: 100 % of control

O=C(/C=N/O)c1cccnc1
T/C [14]: 97 % of control

N#Cc1c(CBr)ccc2ccccc12
T/C (dose: 75.0 mg/kg/injection, schedule: Q01DX001 (ip), vehicle: saline): 92 % of control

CCN(CC)c1ccc2c(c1)C(O)c1ccccc1-2 (stereo not given)
T/C [14]: 94 % of control and 108 % of control | T/C (dose: 200.0 mg/kg/injection, schedule: Q04DX003 (ip), vehicle: saline with Tween-80): 104 % of control and 105 % of control | T/C (dose: 400.0 mg/kg/injection, schedule: Q04DX003 (ip), vehicle: saline with Tween-80): 102 % of control and 108 % of control

CCOC(=O)CNC(=O)N(CCCl)N=O
T/C (dose: 150.0 mg/kg/injection, schedule: Q01DX Z (ip), vehicle: carboxymethylcellulose (CMC)): 102 % of control | T/C (dose: 250.0 mg/kg/injection, schedule: Q01DX Z (ip), vehicle: carboxymethylcellulose (CMC)): 112 % of control

CC(=O)/C=N/NC(=O)C(O)C(O)C(O)C(O)CO (stereo not given)
T/C [6]: 102 % of control | T/C [7]: 94 % of control | T/C [8]: 91 % of control

CC1=CC(=O)[C@@H](O)[C@]2(C)[C@H]3[C@@]4(O)OC[C@]35[C@H]([C@@H](C)[C@H]4O)[C@@H](OC(=O)c3ccccc3)C(=O)O[C@@H]5C[C@@H]12
T/C (dose: 0.25 mg/kg/injection, schedule: Q01DX009 (ip), vehicle: saline with Tween-80): 102 % of control | T/C (dose: 0.5 mg/kg/injection, schedule: Q01DX009 (ip), vehicle: saline with Tween-80): 103 % of control | T/C (dose: 1.0 mg/kg/injection, schedule: Q01DX009 (ip), vehicle: saline with Tween-80): 103 % of control | T/C (dose: 2.0 mg/kg/injection, schedule: Q01DX009 (ip), vehicle: saline with Tween-80): 108 % of control | T/C (dose: 4.0 mg/kg/injection, schedule: Q01DX009 (ip), vehicle: saline with Tween-80): 111 % of control

C(CCSC1=NCCN1)CSC1=NCCN1
T/C (dose: 100.0 mg/kg/injection, schedule: Q04DX002 (ip), vehicle: saline): 105 % of control

CC(C)=NC(=O)NO.[Cl][Zn][Cl]
T/C (dose: 15.0 mg/kg/injection, schedule: Q01DX001 (ip), vehicle: carboxymethylcellulose (CMC)): 95 % of control | T/C (dose: 30.0 mg/kg/injection, schedule: Q01DX001 (ip), vehicle: carboxymethylcellulose (CMC)): 89 % of control | T/C (dose: 60.0 mg/kg/injection, schedule: Q01DX001 (ip), vehicle: carboxymethylcellulose (CMC)): 100 % of control

CCC(C(C)N1CC(=O)NC(=O)C1)N1CC(=O)NC(=O)C1 (stereo not given)
T/C (dose: 0.5 mg/kg/injection, schedule: Q01DX009 (ip), vehicle: Klucel (hydroxypropylcellulose) (HPC)): 154 % of control | T/C (dose: 1.0 mg/kg/injection, schedule: Q04DX003 (ip), vehicle: Klucel (hydroxypropylcellulose) (HPC)): 120 % of control | T/C (dose: 2.0 mg/kg/injection, schedule: Q01DX009 (ip), vehicle: Klucel (hydroxypropylcellulose) (HPC)): 102 % of control | T/C (dose: 2.0 mg/kg/injection, schedule: Q04DX003 (oral), vehicle: Klucel (hydroxypropylcellulose) (HPC)): 123 % of control | T/C (dose: 4.0 mg/kg/injection, schedule: Q01DX009 (ip), vehicle: Klucel (hydroxypropylcellulose) (HPC)): 91 % of control | T/C (dose: 4.0 mg/kg/injection, schedule: Q04DX003 (ip), vehicle: Klucel (hydroxypropylcellulose) (HPC)): 203 % of control | T/C (dose: 8.0 mg/kg/injection, schedule: Q04DX003 (ip), vehicle: Klucel (hydroxypropylcellulose) (HPC)): 219 % of control | T/C (dose: 8.0 mg/kg/injection, schedule: Q04DX003 (oral), vehicle: Klucel (hydroxypropylcellulose) (HPC)): 161 % of control | T/C (dose: 16.0 mg/kg/injection, schedule: Q04DX003 (ip), vehicle: Klucel (hydroxypropylcellulose) (HPC)): 96 % of control | T/C (dose: 32.0 mg/kg/injection, schedule: Q04DX003 (ip), vehicle: Klucel (hydroxypropylcellulose) (HPC)): 119 % of control | T/C (dose: 64.0 mg/kg/injection, schedule: Q04DX003 (oral), vehicle: Klucel (hydroxypropylcellulose) (HPC)): 93 % of control

COc1cc(C=Nc2ccccc2C(=O)N/N=C/c2cc(OC)c(OC)c(OC)c2)cc(OC)c1OC
T/C [11]: 97 % of control | T/C [12]: 100 % of control | T/C [13]: 91 % of control

CCC[As](=O)(O)CC[As](=O)(O)CCC
T/C (dose: 100.0 mg/kg/injection, schedule: Q01DX001 (ip), vehicle: saline with Tween-80): 104 % of control | T/C (dose: 200.0 mg/kg/injection, schedule: Q01DX001 (ip), vehicle: saline with Tween-80): 112 % of control | T/C (dose: 400.0 mg/kg/injection, schedule: Q01DX001 (ip), vehicle: saline with Tween-80): 96 % of control

N#CS
T/C (dose: 50.0 mg/kg/injection, schedule: Q01DX009 (ip), vehicle: saline): 102 % of control | T/C [15]: 95 % of control | T/C [16]: 98 % of control

COc1ccc(/C=C2/COC/C(=C/c3ccc(OC)c(OC)c3)C2=O)cc1OC
T/C [15]: 98 % of control | T/C [6]: 101 % of control | T/C [16]: 93 % of control | T/C [7]: 95 % of control | T/C (dose: 400.0 mg/kg/injection, schedule: Q01DX009 (ip), vehicle: saline): 90 % of control | T/C [8]: 93 % of control

O=C(Nc1ccc(F)c([N+](=O)[O-])c1)Nc1ccccc1C(F)(F)F
T/C [1]: 90 % of control | T/C [2]: 96 % of control | T/C (dose: 400.0 mg/kg/injection, schedule: Q01DX009 (ip), vehicle: saline with Tween-80): 97 % of control

CCCCc1ccc(Nc2cc(=O)[nH]c(=O)[nH]2)cc1
T/C (dose: 25.0 mg/kg/injection, schedule: Q01DX001 (ip), vehicle: gum acacia): 87 % of control | T/C (dose: 50.0 mg/kg/injection, schedule: Q01DX001 (ip), vehicle: gum acacia): 87 % of control | T/C (dose: 200.0 mg/kg/injection, schedule: Q01DX001 (ip), vehicle: gum acacia): 88 % of control | T/C (dose: 400.0 mg/kg/injection, schedule: Q01DX001 (ip), vehicle: gum acacia): 88 % of control
